What was measured:
MAP kinase [1] = assay: MAP kinase activation in Rat1 cells compared to EGF and TPA (Example 3, western blot, densitometry); type: cell-based, rat; conditions: 15 minutes; for Activity (% of EGF-activation), Conc. 1 / Activity (% of TPA-activation), Conc. 1: compound 1 × 10^-4 M; for Activity (% of EGF-activation), Conc. 1 / Activity (% of EGF-activation), Conc. 2: relative to EGF 50 ng/ml; for Activity (% of TPA-activation), Conc. 1 / Activity (% of TPA-activation), Conc. 2: relative to TPA 100 nM; for Activity (% of EGF-activation), Conc. 2 / Activity (% of TPA-activation), Conc. 2: compound 1 × 10^-5 M
Procedure: Rat1 cells were grown in 6 cm cell culture dishes in a tissue culture incubator at 37° C. in an atmosphere containing 5% carbon dioxide. The Rat1 cells were serum-starved for 16 hours. Three groups of the Rat1 cells were then treated for 15 minutes with either epidermal growth factor (EGF) (50 ng/ml), 12-O-tetradecanoylphorbol-13-acetate (TPA) (100nM), or with one of the pheromone compounds at one of two concentrations identified in Table 2 below. EGF and TPA are compounds which are known to activate MAP kinase and therefore serve as a basis of comparing the relative activity of the pheromone compounds. The cells were then washed with phosphate buffered saline (PBS) and lysed with radioimmunoprotein assay (RIPA) buffer. The proteins were then separated by sodium dodecyl sulfate-polyacrylamide gel electrophoresis (SDS-PAGE), transferred onto a nitrocellulose membrane and probed with anti-MAPK antibodies to produce a blot. The MAP kinase activity for the EGF-treated cells, the TPA-treated cells and the pheromone compound-treated cells, was analyzed and calculated using densitometric analysis. The results shown in Table 2 are presented as percent of EGF-stimulated active MAP kinase levels or TPA-stimulated active MAP kinase levels, respectively.

MAP kinase [2] = assay: Screening method for pheromone compounds having MAP kinase modulating activity in Rat1 cells (Example 1); type: cell-based, rat; conditions: observed on screening in accordance with the described methods
Procedure: In a preferred screening method, as set forth in Example 1 herein, pheromone compounds with MAP kinase modulating activity are identified using Rat1 cells grown in cell culture dishes. Samples of the pheromone compound are added to respective cell culture dishes containing the Rat1 cells and incubated. A control group is established by treating a separate group of cell culture dishes containing Rat1 cells with the same solutions absent the pheromone compound. After incubation, the Rat1 cells are stimulated with epidermal growth factor to stimulate MAP kinase activation in the Rat1 cells. Upon completion of the incubation period, the Rat1 cells in each of the culture dishes are separately processed to obtain the corresponding cell extract containing proteins indicative of active kinase. The proteins are then separated using known electrophoresis techniques and prepared as a blot for the detection and measurement of active MAP kinase. The resulting blot is analyzed using densitometric techniques to measure the corresponding activity of the tested pheromone compound.
Rat1 cells were grown in 6 cm cell culture dishes in a tissue culture incubator at 37° C. in an atmosphere containing 5% carbon dioxide. The cells were serum-starved for 16 hours. […] A control group was established by adding to the remaining cell culture dishes the same solution absent the pheromone compound. After the 15 minute period, the Rat1 cells were stimulated with epidermal growth factor (EGF) (50 ng/ml) for about 15 minutes for one group and 30 minutes for a second group.
The Rat1 cells were then treated to remove the corresponding incubation medium and then the cells were rinsed twice each with 5 ml of cold phosphate buffered saline (PBS) and once with 5 ml of cold homogenizing buffer (Buffer H) containing 50 mM of β-glycerophosphate, (pH 7.3), 1.5 mM of ethylenebis(oxyethylenenitrilo)tetraacetic acid (EGTA), 1 mM of ethylenediaminetetraacetic acid (EDTA), 1 mM of dithiothreitol (DTT), 0.1 mM sodium orthovanadate, 1 mM benzamidine, 10 μg/ml of aprotinin, 10 μg/ml of leupeptin, and 2 μg/ml of pepstatin (2 μg/ml)+1% Triton-X-100.
The cells were harvested and lysed with 350 μl of cold Buffer H. Alternatively, the cells may be harvested and lysed with radioimmunoprotein assay buffer (RIPA buffer). Each extract was then centrifuged at 15,000×g for 15 minutes at 4° C. The resulting supernatants contained the protein extracts to be examined and were transferred to fresh, pre-cooled test tubes and kept on ice.
The proteins were then separated by sodium dodecyl sulfate-polyacrylamide gel electrophoresis (SDS-PAGE) and transferred, by western blotting, onto a nitrocellulose membrane.
The blot produced above was blocked with 2% bovine serum albumin (BSA) in Tris-buffered saline/Tween-20 (TBST) for 1 hour. The blot was then incubated with a monoclonal anti-active MAP kinase antibody obtained from Sigma, and diluted according to the manufacturer recommendations. The blot was incubated overnight at 4° C. Alternatively, the blot may also be incubated for about 30 minutes at 37° C., or from one to two hours at room temperature.
The treated blot was placed in a flat container and washed at least 3 times for 15 minutes each with TBST buffer at room temperature. The blot was then incubated with alkaline phosphatase-conjugated goat anti-mouse IgG obtained from Jackson Laboratories, diluted according to the manufacturer recommendations in TBST buffer for 45 minutes at room temperature. The blot was then subjected to a second washing, repeated 3 times, for 10 minutes each with TBST. An alkaline phosphatase (AP) detection technique was utilized to detect and measure the presence of active MAP kinase. Enhanced MAP kinase activity as compared to control is evidence that the compound is a MAP kinase activator. Lowered MAP kinase activity as compared to control is evidence that the compound is a MAP kinase inhibitor. […]

Compound | Activity (% of EGF-activation), Conc. 1 (MAP kinase [1]) [%] | Activity (% of TPA-activation), Conc. 1 (MAP kinase [1]) [%] | Activity (% of EGF-activation), Conc. 2 (MAP kinase [1]) [%] | Activity (% of TPA-activation), Conc. 2 (MAP kinase [1]) [%] | mitogen-activating protein kinase modulation activity (activator or inhibitor) (MAP kinase [2])
CCCCCC(C)=O [2-Heptanone] | 5 | 14 | 7 | 50 | activators
C=CC(C)(C)O [2-methyl-3-butene-2-ol] | 5 | 35 | – | – | activators
CCC(C)CCCC/C=C\CCCCCCC=O (stereo not drawn) [14-methyl-Cis-8-Hexadecenal] | 10 | 75 | 3 | 15 | activators
CCCCCCCCCC/C=C\CCCCC(C)C [Cis-2-methyl-7-Octadecene] | 8 | 60 | 8 | 45 | activators
CCCCCCCC/C=C\CCCOC(C)=O [Cis-4-Tridecen-1-yl-acetate] | 3 | 7 | 5 | 30 | activators
CCCC/C=C\CCCCCCOC(C)=O [Cis-7-Dodecenyl-acetate] | 7 | 20 | 8 | 17 | activators
CCCCCC/C=C\CCCCCC=O [Cis-7-Tetradecenal] | 7 | 20 | 5 | 10 | activators
CCCCCC/C=C\CCCCCCO [Cis-7-Tetradecenol] | 9 | 30 | 9 | 25 | activators
CCCCCC/C=C\CCCCCCOC(C)=O [Cis-7-Tetradecenyl-acetate] | 8 | 21 | 10 | 80 | activators
CCCCC/C=C\CCCCCCO [Cis-7-Tridecenol] | 12 | 80 | 9 | 60 | activators
CCCCCCCC/C=C\CCCCCCCCCCC [Cis-9-Heneicosene] | – | – | 3 | 22 | activators
CCCCC/C=C\CCCCCCCCO [Cis-9-Pentadecenol] | 14 | 95 | 6 | 30 | activators
CCCC/C=C\CCCCCCCCO [Cis-9-Tetradecenol] | 15 | 105 | 8 | 35 | activators
CCCC/C=C\CCCCCCCCOC=O [Cis-9-Tetradecenyl-formate] | 12 | 90 | 12 | 55 | activators
CCCC/C=C\CCCCCCCCC/C=C/C=O [Trans-2,Cis-13-Octadecadienal] | 4 | 30 | 8 | 40 | activators
CC/C=C\C/C=C\CCC/C=C/CCO [Trans-3,Cis-8,Cis-11-Tetradecatrienol] | 6 | 10 | 5 | 50 | activators
CCCC/C=C/CCCCOC(C)=O [Trans-5-decenyl-acetate] | 1 | – | 4 | 18 | activators
C/C=C/CCCCCCCCCO [Trans-10-Dodecenol] | 2 | 10 | 10 | 60 | activators
CCCCC/C=C\CCCC(=O)CCCCCCCCCC [cis-6-heneicosene-11-one] | – | – | – | – | activators
Cis-9-Undecenyl-acetate | 18 | 115 | 3 | 10 | activators
Heneicosene-11-one | 12 | 42 | 12 | 22 | activators
